Data published in the C3SDB collision cross section collection.

Settings: [M+H]+; instrument: TW

Row | Compound | collision cross section (N2) [Å²]
1 | CO/C=C(/C(=O)OC)c1ccccc1Oc1cc(Oc2ccccc2C#N)ncn1 [Azoxystrobin] | 195.75
2 | CC(C)(C)NCC(O)c1cc(Cl)c(N)c(Br)c1 (stereo unspecified) [Bromchlorbuterol] | 165.2
3 | C=CCOC(=O)C(C)(C)OC(=O)c1cc(-n2c(=O)cc(C(F)(F)F)n(C)c2=O)ccc1Cl [Butafenacil] | 208.59
4 | CC(C)NCC(O)COc1cccc2[nH]c3ccccc3c12 (stereo unspecified) [Carazolol] | 165.5
5 | COC(=O)Nc1nc2ccccc2[nH]1 [Carbendazim] | 134.94
6 | CON(C)C(=O)Nc1ccc(Br)c(Cl)c1 [Chlorbromuron] | 152.25
7 | COc1nc(C)nc(NC(=O)NS(=O)(=O)c2ccccc2Cl)n1 [Chlorsulfuron] | 175.29
8 | CC(C)NCC(O)c1ccc(N)c(C#N)c1 (stereo unspecified) [Cimaterol] | 155.4
9 | CCC(C)(C)NCC(O)c1cc(Cl)c(N)c(Cl)c1 (stereo unspecified) [Clenpenterol] | 165
10 | Clc1ccccc1-c1nnc(-c2ccccc2Cl)nn1 [Clofentezine] | 161.9
11 | Cc1cc(C2CC2)nc(Nc2ccccc2)n1 [Cyprodinil] | 152.07
12 | Nc1nc(N)nc(NC2CC2)n1 [Cyromazine] | 133.23
13 | Nc1ccc(S(=O)(=O)c2ccc(N)cc2)cc1 [Dapsone] | 149.9
14 | CCS(=O)(=O)CCSP(=O)(OC)OC [Demeton-S-methyl- sulfone] | 143.66
15 | CC(C)c1cc(Oc2ccccc2)cc(C(C)C)c1NC(=S)NC(C)(C)C [Diafenthiuron] | 199.75
16 | CC1COC(Cn2cncn2)(c2ccc(Oc3ccc(Cl)cc3)cc2Cl)O1 (stereo unspecified) [Difenoconazole] | 198.48
17 | Cc1ncc([N+](=O)[O-])n1C [Dimetridazole] | 116.4
18 | C=C1C[C@@]23CC[C@H]4[C@@](C)(CCC[C@@]4(C)C(=O)O[C@@H]4O[C@H](CO)[C@@H](O)[C@H](O)[C@H]4O)[C@@H]2CC[C@]1(O[C@@H]1O[C@H](CO)[C@@H](O)[C@H](O)[C@H]1O[C@@H]1O[C@@H](C)[C@H](O)[C@@H](O)[C@H]1O)C3 [Dulcoside A] | 270.75
19 | CSC1=N[C@@](C)(c2ccccc2)C(=O)N1Nc1ccccc1 [Fenamidone] | 171.15
20 | CC1(C(=O)Nc2ccc(O)c(Cl)c2Cl)CCCCC1 [Fenhexamid] | 164.82
21 | CC(Cc1ccc(C(C)(C)C)cc1)CN1CCCCC1 (stereo unspecified) [Fenpropidin] | 166.39
22 | CCCCOC(=O)[C@@H](C)Oc1ccc(Oc2ccc(C(F)(F)F)cn2)cc1 [Fluazafop-P-butyl] | 194.8
23 | O=C(NC(=O)c1c(F)cccc1F)Nc1ccc(Oc2ccc(C(F)(F)F)cc2Cl)cc1F [Flufenoxuron] | 204.46
24 | CC1CCc2cc(F)cc3c(=O)c(C(=O)O)cn1c23 (stereo unspecified) [Flumequine] | 147.6

Row | Compound | collision cross section (N2) [Å²]
25 | C[C@@H]1C[C@H]2[C@@H]3C[C@H](F)C4=CC(=O)C=C[C@]4(C)[C@@]3(F)[C@@H](O)C[C@]2(C)[C@@]1(O)C(=O)CO [Flumethasone] | 193.2
26 | OC(Cn1cncn1)(c1ccc(F)cc1)c1ccccc1F (stereo unspecified) [Flutriafol] | 163.97
27 | CNC(=O)Oc1cccc(N=CN(C)C)c1 [Formetanate] | 153.76
28 | CCOCCOC(=O)C(C)Oc1ccc(Oc2ncc(C(F)(F)F)cc2Cl)cc1 (stereo unspecified) [Haloxyfop-2-ethoxyethyl] | 193.53
29 | O=C(NC(=O)c1c(F)cccc1F)Nc1cc(Cl)c(OC(F)(F)C(F)F)c(Cl)c1 [Hexaflumuron] | 188.22
30 | Oc1ccc2nc(-c3cscn3)[nH]c2c1 [Hydroxythiabendazole] | 137.2
31 | COC(=O)N(C(=O)N1CO[C@@]2(C(=O)OC)Cc3cc(Cl)ccc3C2=N1)c1ccc(OC(F)(F)F)cc1 [Indoxacarb] | 207.03
32 | CC(C)c1ccc(NC(=O)N(C)C)cc1 [Isoproturon] | 150.75
33 | CCC(C)(CC)c1cc(NC(=O)c2c(OC)cccc2OC)on1 [Isoxaben] | 184.93
34 | CC(C(=O)O)c1cccc(C(=O)c2ccccc2)c1 (stereo unspecified) [Ketoprofen] | 155.4
35 | CCC[C@@H]1C[C@@H](C(=O)N[C@@H]([C@H]2O[C@H](SC)[C@H](O)[C@@H](O)[C@H]2O)[C@@H](C)O)N(C)C1 [Lincomycin] | 201.8
36 | O=C(NC(=O)c1c(F)cccc1F)Nc1cc(Cl)c(OC(F)(F)C(F)C(F)(F)F)cc1Cl (stereo unspecified) [Lufenuron] | 198.53
37 | CC(C)(C)NCC(O)c1cc(Cl)c(N)c(C(F)(F)F)c1 (stereo unspecified) [Mabuterol] | 168.4
38 | C#CCOc1ccc(CCNC(=O)C(OCC#C)c2ccc(Cl)cc2)cc1OC (stereo unspecified) [Mandipropamid] | 195.15
39 | Cc1cnc(/N=C(\O)C2=C(O)c3ccccc3S(=O)(=O)N2C)s1 [Meloxicam] | 174.9
40 | CC1(C)CCC(Cc2ccc(Cl)cc2)C1(O)Cn1cncn1 (stereo unspecified) [Metconazole] | 168.62
41 | CON(C)C(=O)Nc1ccc(Cl)cc1 [Monolinuron] | 142.9
42 | Cc1ccsc1/C=C/C1=NCCCN1C [Morantel] | 149.7
43 | CCn1cc(C(=O)O)c(=O)c2ccc(C)nc21 [Nalidixic acid] | 141.4
44 | CC(C)Oc1cc(-n2nc(C(C)(C)C)oc2=O)c(Cl)cc1Cl [Oxadiazon] | 182.17
45 | CCn1cc(C(=O)O)c(=O)c2cc3c(cc21)OCO3 [Oxolinic acid] | 147.8
46 | CN(C)[C@@H]1C(O)=C(C(N)=O)C(=O)[C@@]2(O)C(O)=C3C(=O)c4c(O)cccc4[C@@](C)(O)[C@H]3[C@H](O)[C@@H]12 [Oxytetracycline] | 202.3
47 | CCC(NC(C)C)C(O)c1ccc(O)c2[nH]c(=O)ccc12 (stereo unspecified) [Procaterol] | 168
48 | CC(C)N(C(=O)CCl)c1ccccc1 [Propachlor] | 142.07

Row | Compound | collision cross section (N2) [Å²]
49 | CCC(=O)c1ccc2c(c1)N(CCCN(C)C)c1ccccc1S2 [Propionylpromazine] | 182.8
50 | Ic2ccc1\N=C(\OCCC)N(C(=O)c1c2)CCC [Proquinazid] | 169.35
51 | Cc1cc(C)nc(Nc2ccccc2)n1 [Pyrimethanil] | 142.95
52 | CCOP(=S)(OCC)Oc1cnc2ccccc2n1 [Quinalphos] | 165.1
53 | CC(CCc1ccc(O)cc1)NCC(O)c1ccc(O)cc1 (stereo unspecified) [Ractopamine] | 168.9
54 | C[C@H](NCCc1ccc(O)cc1)[C@H](O)c1ccc(O)cc1 [Ritodrine] | 165.8
55 | Cn1c([N+](=O)[O-])cnc1COC(N)=O [Ronidazole] | 131.6
56 | C=C(C)C1Cc2c(ccc3c2OC2COc4cc(OC)c(OC)cc4C2C3=O)O1 (stereo unspecified) [Rotenone] | 195.01
57 | CC(C)(C)NCC(O)c1ccc(O)c(CO)c1 (stereo unspecified) [Salbutamol] | 158.3
58 | CCOC(=O)OC1=C(c2cc(C)ccc2C)C(=O)NC12CCC(OC)CC2 (stereo unspecified) [Spirotetramat] | 189.99
59 | C=C1C[C@@]23CC[C@H]4[C@@](C)(CCC[C@@]4(C)C(=O)O)[C@@H]2CC[C@]1(O)C3 [Steviol] | 173.38
60 | Nc1ccc(S(=O)(=O)Nc2ccc(Cl)nn2)cc1 [Sulfachloropyridazine] | 156.9
61 | Nc1ccc(S(=O)(=O)Nc2ncccn2)cc1 [Sulfadiazine] | 148.7
62 | Cc1cc(C)nc(NS(=O)(=O)c2ccc(N)cc2)n1 [Sulfadimidine] | 159.7
63 | COc1ncnc(NS(=O)(=O)c2ccc(N)cc2)c1OC [Sulfadoxine] | 166.6
64 | Cc1nnc(NS(=O)(=O)c2ccc(N)cc2)s1 [Sulfamethizole] | 152.2
65 | Cc1nn(-c2cc(NS(C)(=O)=O)c(Cl)cc2Cl)c(=O)n1C(F)F [Sulfentrazone] | 173.63
66 | Cc1noc(NS(=O)(=O)c2ccc(N)cc2)c1C [Sulfisoxazole] | 157.4
67 | CCc1nn(C)c(C(=O)NCc2ccc(C(C)(C)C)cc2)c1Cl [Tebufenpyrad] | 191.25
68 | CN(C)[C@@H]1C(O)=C(C(N)=O)C(=O)[C@@]2(O)C(O)=C3C(=O)c4c(O)cccc4[C@@](C)(O)[C@H]3C[C@@H]12 [Tetracycline] | 197.3
69 | Cc1c(Cl)cccc1Nc1ccccc1C(=O)O [Tolfenamic acid] | 153.7
70 | Cc1ccc(C(=O)c2ccc(CC(=O)O)n2C)cc1 [Tolmetin] | 156.7
71 | COP(=O)(OC)C(O)C(Cl)(Cl)Cl (stereo unspecified) [Trichlorfon] | 136.12
